In the supplement of paper PMC10307832 one finds relative viability data, which are given here for seven cell lines.

Assay in all cases: relative viability (nuclei count vs DMSO), 5 days (fraction); higher = more cells survive
Compound in assay [1]: CN1C=C(C2=CC=CC=C21)/C=C\3/C4=C(C=CC=N4)NC3=O + Cc1cc(Nc2cc(N3CCN(C)CC3)nc(Sc3ccc(NC(=O)C4CC4)cc3)n2)n[nH]1 [Tozasertib] (partner 0.1 µM)
The procedure, abridged: (§1)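 One day after seeding in 1536-well plates, lung cancer cell lines were dosed by pin tool. Dosing was either single-drug or a fixed anchor-drug dose plus five library-drug doses (not always all listed) in √10 steps. After 5 days, nuclei were stained in one fix-and-stain step and counted on 4× images, and relative viability is the nuclei count of treated wells over that of vehicle wells, given as the median of duplicate plates.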

Compound in the assay “Trametinib + Bortezomib”: CC(=O)Nc1cccc(-n2c(=O)n(C3CC3)c(=O)c3c(Nc4ccc(I)cc4F)n(C)c(=O)c(C)c32)c1 [Trametinib] + CC(C)C[C@H](NC(=O)[C@H](Cc1ccccc1)NC(=O)c1cnccn1)B(O)O [Bortezomib] (partner 0.002 µM)
The gist of the method: as §1

Compound in the assay “Trametinib + AZD7762”: CC(=O)Nc1cccc(-n2c(=O)n(C3CC3)c(=O)c3c(Nc4ccc(I)cc4F)n(C)c(=O)c(C)c32)c1 [Trametinib] + NC(=O)Nc1cc(-c2cccc(F)c2)sc1C(=O)N[C@H]1CCCNC1 [AZD7762] (partner 0.2 µM)
The procedure, abridged: as §1

Compound in the assay “Trametinib + Crizotinib”: CC(=O)Nc1cccc(-n2c(=O)n(C3CC3)c(=O)c3c(Nc4ccc(I)cc4F)n(C)c(=O)c(C)c32)c1 [Trametinib] + C[C@@H](Oc1cc(-c2cnn(C3CCNCC3)c2)cnc1N)c1c(Cl)ccc(F)c1Cl [Crizotinib] (partner 1 µM)
The procedure, abridged:
as §1

In the case of LCLC-97TM1, the relative viability in assay [1] (first compound 0.02 µM) is 0.132; in assay [1] (first compound 0.06325 µM) it was 0.196; in assay [1] (first compound 0.2 µM), 0.181; in assay [1] (first compound 0.6325 µM) it was 0.332; in assay [1] (first compound 2 µM), 0.252; with Trametinib + Bortezomib (first compound 0.0025 µM), 0.616. Also, the relative viability in the assay with Trametinib + Bortezomib (first compound 0.007906 µM) stood at 0.482; with Trametinib + Bortezomib (first compound 0.025 µM), 0.128; with Trametinib + Bortezomib (first compound 0.07906 µM), 0.0773; in the assay with Trametinib + Bortezomib (first compound 0.25 µM), 0.0973; in the assay with Trametinib + AZD7762 (first compound 0.0025 µM), 0.352; in the assay with Trametinib + AZD7762 (first compound 0.007906 µM), 0.306. The relative viability is 0.137 with Trametinib + AZD7762 (first compound 0.025 µM); 0.161 in the assay with Trametinib + AZD7762 (first compound 0.07906 µM); 0.123 with Trametinib + AZD7762 (first compound 0.25 µM); 0.482 with Trametinib + Crizotinib (first compound 0.0025 µM); 0.573 with Trametinib + Crizotinib (first compound 0.007906 µM); 0.271 with Trametinib + Crizotinib (first compound 0.025 µM). The results for the relative viability with Trametinib + Crizotinib (first compound 0.07906 µM) and with Trametinib + Crizotinib (first compound 0.25 µM) were 0.281 and 0.147, respectively.
In the case of EMC-BAC-2, the relative viability was found to be 0.315 in assay [1] (first compound 0.02 µM); 0.295 in assay [1] (first compound 0.06325 µM); 0.301 in assay [1] (first compound 0.2 µM); 0.281 in assay [1] (first compound 0.6325 µM); 0.374 in assay [1] (first compound 2 µM); 1.05 in the assay with Trametinib + Bortezomib (first compound 0.0025 µM). The relative viability was 0.99 with Trametinib + Bortezomib (first compound 0.007906 µM); 0.865 in the assay with Trametinib + Bortezomib (first compound 0.025 µM); 1 with Trametinib + Bortezomib (first compound 0.07906 µM); 0.859 with Trametinib + Bortezomib (first compound 0.25 µM); 1.19 with Trametinib + AZD7762 (first compound 0.0025 µM); 1.14 in the assay with Trametinib + AZD7762 (first compound 0.007906 µM). The relative viability in the assay with Trametinib + AZD7762 (first compound 0.025 µM) was 0.994; with Trametinib + AZD7762 (first compound 0.07906 µM) it was 0.932; with Trametinib + AZD7762 (first compound 0.25 µM), 0.757; with Trametinib + Crizotinib (first compound 0.0025 µM) it was 0.755; with Trametinib + Crizotinib (first compound 0.007906 µM) it was 0.782; in the assay with Trametinib + Crizotinib (first compound 0.025 µM) it was 0.765. Further, the relative viability in the assay with Trametinib + Crizotinib (first compound 0.07906 µM) was 0.732; in the assay with Trametinib + Crizotinib (first compound 0.25 µM), 0.482.
Regarding A-427, the relative viability in assay [1] (first compound 0.02 µM) is 0.203; in assay [1] (first compound 0.06325 µM), 0.207; in assay [1] (first compound 0.6325 µM), 0.201; in assay [1] (first compound 2 µM), 0.166; with Trametinib + Bortezomib (first compound 0.0025 µM), 1.1; with Trametinib + Bortezomib (first compound 0.007906 µM), 1.05. Also, the relative viability was 0.735 with Trametinib + Bortezomib (first compound 0.025 µM); 0.763 with Trametinib + Bortezomib (first compound 0.07906 µM); 0.601 with Trametinib + Bortezomib (first compound 0.25 µM); 0.662 in the assay with Trametinib + AZD7762 (first compound 0.0025 µM); 0.573 with Trametinib + AZD7762 (first compound 0.007906 µM); 0.525 with Trametinib + AZD7762 (first compound 0.025 µM). The relative viability with Trametinib + AZD7762 (first compound 0.07906 µM) was 0.373; in the assay with Trametinib + AZD7762 (first compound 0.25 µM), 0.371; in the assay with Trametinib + Crizotinib (first compound 0.0025 µM), 0.924; with Trametinib + Crizotinib (first compound 0.007906 µM) it was 0.757; in the assay with Trametinib + Crizotinib (first compound 0.025 µM), 0.659; with Trametinib + Crizotinib (first compound 0.07906 µM) it was 0.658. The relative viability in the assay with Trametinib + Crizotinib (first compound 0.25 µM) was found to be 0.502.
As to NCI-H650, the relative viability in assay [1] (first compound 0.02 µM) was found to be 0.643; in assay [1] (first compound 0.06325 µM), 0.674; in assay [1] (first compound 0.6325 µM), 0.829; in assay [1] (first compound 2 µM), 0.757; in the assay with Trametinib + Bortezomib (first compound 0.0025 µM) it was 1.06; in the assay with Trametinib + Bortezomib (first compound 0.007906 µM), 1.15. Besides, the relative viability with Trametinib + Bortezomib (first compound 0.025 µM) worked out at 0.791; with Trametinib + Bortezomib (first compound 0.07906 µM), 0.729; with Trametinib + Bortezomib (first compound 0.25 µM) it was 0.276; in the assay with Trametinib + AZD7762 (first compound 0.0025 µM) it was 1.06; with Trametinib + AZD7762 (first compound 0.007906 µM) it was 1.15; with Trametinib + AZD7762 (first compound 0.025 µM) it was 1.03. Further, the relative viability came to 0.614 with Trametinib + AZD7762 (first compound 0.07906 µM); 0.655 with Trametinib + AZD7762 (first compound 0.25 µM); 0.787 with Trametinib + Crizotinib (first compound 0.0025 µM); 0.736 with Trametinib + Crizotinib (first compound 0.007906 µM); 0.672 with Trametinib + Crizotinib (first compound 0.025 µM); 0.668 with Trametinib + Crizotinib (first compound 0.07906 µM). For the same cell line, the relative viability with Trametinib + Crizotinib (first compound 0.25 µM) was found to be 0.339.
On to NCI-H1755, for which the relative viability amounted to 0.56 in assay [1] (first compound 0.02 µM); 0.557 in assay [1] (first compound 0.06325 µM); 0.605 in assay [1] (first compound 0.2 µM); 0.502 in assay [1] (first compound 0.6325 µM); 0.509 in assay [1] (first compound 2 µM); 0.847 with Trametinib + Bortezomib (first compound 0.0025 µM). The relative viability in the assay with Trametinib + Bortezomib (first compound 0.007906 µM) was 0.835; with Trametinib + Bortezomib (first compound 0.025 µM) it was 0.806; with Trametinib + Bortezomib (first compound 0.07906 µM) it was 0.843; with Trametinib + Bortezomib (first compound 0.25 µM), 0.679; in the assay with Trametinib + AZD7762 (first compound 0.0025 µM), 0.457; with Trametinib + AZD7762 (first compound 0.007906 µM), 0.405. Besides, the relative viability with Trametinib + AZD7762 (first compound 0.025 µM) came to 0.428; with Trametinib + AZD7762 (first compound 0.07906 µM), 0.426; with Trametinib + AZD7762 (first compound 0.25 µM) it was 0.352; with Trametinib + Crizotinib (first compound 0.0025 µM) it was 0.807; with Trametinib + Crizotinib (first compound 0.007906 µM), 0.789; with Trametinib + Crizotinib (first compound 0.025 µM), 0.706. Moreover, the relative viability amounted to 0.772 in the assay with Trametinib + Crizotinib (first compound 0.07906 µM) and 0.691 with Trametinib + Crizotinib (first compound 0.25 µM).
Regarding NCI-H2085, the relative viability in assay [1] (first compound 0.02 µM) was determined as 0.803; in assay [1] (first compound 0.06325 µM), 0.734; in assay [1] (first compound 0.2 µM), 0.797; in assay [1] (first compound 0.6325 µM) it was 0.622; in assay [1] (first compound 2 µM), 0.575; in the assay with Trametinib + Bortezomib (first compound 0.0025 µM) it was 0.994. Moreover, the relative viability was 0.799 with Trametinib + Bortezomib (first compound 0.007906 µM); 0.751 with Trametinib + Bortezomib (first compound 0.025 µM); 0.783 with Trametinib + Bortezomib (first compound 0.07906 µM); 0.6 with Trametinib + Bortezomib (first compound 0.25 µM); 0.81 in the assay with Trametinib + AZD7762 (first compound 0.0025 µM); 0.752 with Trametinib + AZD7762 (first compound 0.007906 µM). For the same cell line, the relative viability worked out at 0.391 with Trametinib + AZD7762 (first compound 0.025 µM); 0.518 with Trametinib + AZD7762 (first compound 0.07906 µM); 0.541 with Trametinib + AZD7762 (first compound 0.25 µM); 0.793 with Trametinib + Crizotinib (first compound 0.0025 µM); 0.69 in the assay with Trametinib + Crizotinib (first compound 0.007906 µM); 0.698 with Trametinib + Crizotinib (first compound 0.025 µM). Also, the results for the relative viability in the assay with Trametinib + Crizotinib (first compound 0.07906 µM) and with Trametinib + Crizotinib (first compound 0.25 µM) were 0.688 and 0.63, respectively.
For the cell line HOP-62, the relative viability in assay [1] (first compound 0.02 µM) is 0.31; in assay [1] (first compound 0.06325 µM), 0.359; in assay [1] (first compound 0.2 µM), 0.412; in assay [1] (first compound 0.6325 µM), 0.406; in assay [1] (first compound 2 µM), 0.422; in the assay with Trametinib + Bortezomib (first compound 0.0025 µM) it was 0.776. Besides, the relative viability was found to be 0.956 with Trametinib + Bortezomib (first compound 0.007906 µM); 0.425 in the assay with Trametinib + Bortezomib (first compound 0.025 µM); 0.439 in the assay with Trametinib + Bortezomib (first compound 0.07906 µM); 0.186 with Trametinib + Bortezomib (first compound 0.25 µM); 0.737 with Trametinib + AZD7762 (first compound 0.0025 µM); 0.461 in the assay with Trametinib + AZD7762 (first compound 0.007906 µM). In addition, the relative viability with Trametinib + AZD7762 (first compound 0.025 µM) amounted to 0.251; in the assay with Trametinib + AZD7762 (first compound 0.07906 µM) it was 0.243; with Trametinib + AZD7762 (first compound 0.25 µM), 0.211; in the assay with Trametinib + Crizotinib (first compound 0.0025 µM), 0.925; in the assay with Trametinib + Crizotinib (first compound 0.007906 µM) it was 0.932; in the assay with Trametinib + Crizotinib (first compound 0.025 µM), 0.581. Moreover, the figures for the relative viability with Trametinib + Crizotinib (first compound 0.07906 µM) and with Trametinib + Crizotinib (first compound 0.25 µM) were 0.502 and 0.209, respectively.
